Laboratory results: patent US20060167057A1, “Compounds for the treatment of CNS and amyloid associated diseases” (priority 2004, published 2006)

Biological target: T1, L1 transport system (large neutral amino acid carrier, L1-system carrier) (Rattus norvegicus, UniProt Q63016)
T1 construct: functionality of their endogenous transporters such as the L1-system carrier; endogenous in cells; host or cells: rat primary cerebrovascular (brain microcapillary) endothelial cells, RBEC
Assay: Competitive binding assay to the brain L1 transport system (L-[U-14C]phenylalanine on rat primary cerebrovascular endothelial cells)
Conditions: for Status of Binding: compounds of Example 4, 10^−6, 10^−5 and 10^−4, Δ versus phenylalanine
How it was run: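 Cells were primary cerebral microvascular endothelial cells from cortices of 24-day-old rats, isolated by collagenase/DNAse digestion, dextran separation and mesh filtration.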

T1 sequence (Q63016 whole entry): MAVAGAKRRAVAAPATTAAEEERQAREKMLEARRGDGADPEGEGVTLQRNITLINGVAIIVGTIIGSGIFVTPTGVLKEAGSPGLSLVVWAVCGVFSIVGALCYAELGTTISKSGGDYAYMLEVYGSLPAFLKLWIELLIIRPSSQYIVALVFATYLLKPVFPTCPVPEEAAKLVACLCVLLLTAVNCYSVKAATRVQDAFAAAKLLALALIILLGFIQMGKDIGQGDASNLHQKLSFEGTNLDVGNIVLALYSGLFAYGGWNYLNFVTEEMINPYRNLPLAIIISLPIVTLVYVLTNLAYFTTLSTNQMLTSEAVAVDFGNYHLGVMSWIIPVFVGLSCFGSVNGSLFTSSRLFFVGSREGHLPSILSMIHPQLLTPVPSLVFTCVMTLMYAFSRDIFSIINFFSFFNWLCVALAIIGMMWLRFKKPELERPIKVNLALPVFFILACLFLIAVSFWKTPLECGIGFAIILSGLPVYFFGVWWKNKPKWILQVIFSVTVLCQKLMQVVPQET
T1 sequence (Q794F9 whole entry partner): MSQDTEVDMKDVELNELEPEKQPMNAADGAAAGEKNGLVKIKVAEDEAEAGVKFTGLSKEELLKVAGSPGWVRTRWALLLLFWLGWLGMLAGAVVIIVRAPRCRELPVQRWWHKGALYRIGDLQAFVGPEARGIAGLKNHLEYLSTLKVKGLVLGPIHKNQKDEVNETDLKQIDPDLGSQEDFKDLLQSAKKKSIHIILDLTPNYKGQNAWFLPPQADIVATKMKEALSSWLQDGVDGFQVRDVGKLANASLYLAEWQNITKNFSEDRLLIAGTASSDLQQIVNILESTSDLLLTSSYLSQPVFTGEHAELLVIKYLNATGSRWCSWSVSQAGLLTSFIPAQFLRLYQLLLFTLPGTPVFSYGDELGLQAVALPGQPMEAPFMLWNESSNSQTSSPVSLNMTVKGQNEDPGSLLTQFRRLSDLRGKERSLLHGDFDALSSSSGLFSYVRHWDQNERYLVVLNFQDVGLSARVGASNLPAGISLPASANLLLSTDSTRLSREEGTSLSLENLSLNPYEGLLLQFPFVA

| SMILES | Comparison with the Binding of Phenylalanine (10^−4 M) | Comparison with the Binding of Phenylalanine (10^−5 M) | Comparison with the Binding of Phenylalanine (10^−6 M) | Status of Binding |
| --- | --- | --- | --- | --- |
| NC(Cc1ccc(-c2ccc(CN3CCN(c4cccc(Cl)c4)CC3)cc2)cc1)C(=O)O (stereo not drawn) [Compound 116] | 1 (0 < X < 10 Rank 1) | 2 (10 < X < 20 Rank 2) | 2 (10 < X < 20 Rank 2) |  |
| N#CC1(c2ccccc2)CCN(Cc2cccc(CC(N)C(=O)O)n2)CC1 (stereo not drawn) [Compound 117] | 0 (X < 0 Rank 0) | 0 (X < 0 Rank 0) | 1 (0 < X < 10 Rank 1) |  |
| CN(C)CCn1nnnc1SCc1ccc(-c2ccc(CC(N)C(=O)O)cc2)cc1 (stereo not drawn) [Compound 118] | 3 (X > 20 Rank 3) | 3 (X > 20 Rank 3) | 3 (X > 20 Rank 3) |  |
| NC(Cc1cccc(CSc2nc(-c3ccccc3)c(-c3ccccc3)o2)n1)C(=O)O (stereo not drawn) [Compound 119] | 2 (10 < X < 20 Rank 2) | 3 (X > 20 Rank 3) | 1 (0 < X < 10 Rank 1) |  |
| NC(Cc1ccc(-c2ccc(CN3CCN(c4ccc(F)cc4)CC3)cc2)cc1)C(=O)O (stereo not drawn) [Compound 120] | 0 (X < 0 Rank 0) | 1 (0 < X < 10 Rank 1) | 1 (0 < X < 10 Rank 1) |  |
| Cc1ccnc(SCc2cccc(CC(N)C(=O)O)n2)n1 (stereo not drawn) [Compound 121] | 0 (X < 0 Rank 0) | 0 (X < 0 Rank 0) | 1 (0 < X < 10 Rank 1) |  |
| Cc1nc(SCc2ccc(-c3ccc(CC(N)C(=O)O)cc3)cc2)sc1CC(=O)O (stereo not drawn) [Compound 122] | 0 (X < 0 Rank 0) | 0 (X < 0 Rank 0) | 1 (0 < X < 10 Rank 1) |  |
| NC(Cc1cccc(CSc2nnnn2CC(=O)O)n1)C(=O)O (stereo not drawn) [Compound 123] | 0 (X < 0 Rank 0) | 2 (10 < X < 20 Rank 2) | 2 (10 < X < 20 Rank 2) |  |
| NC(Cc1ccc(-c2ccc(CSc3nc4cc([N+](=O)[O-])ccc4[nH]3)cc2)cc1)C(=O)O (stereo not drawn) [Compound 124] | 0 (X < 0 Rank 0) | 1 (0 < X < 10 Rank 1) | 1 (0 < X < 10 Rank 1) |  |
| NC(Cc1cccc(CSc2nc3ccccc3c(=O)[nH]2)n1)C(=O)O (stereo not drawn) [Compound 125] | 0 (X < 0 Rank 0) | 1 (0 < X < 10 Rank 1) | 2 (10 < X < 20 Rank 2) |  |
| Cc1nnc(SCc2ccc(-c3ccc(CC(N)C(=O)O)cc3)cc2)s1 (stereo not drawn) [Compound 126] | 0 (X < 0 Rank 0) | 1 (0 < X < 10 Rank 1) | 1 (0 < X < 10 Rank 1) |  |
| CC(=O)c1ccc(N2CCN(Cc3cccc(CC(N)C(=O)O)n3)CC2)cc1 (stereo not drawn) [Compound 127] | 1 (0 < X < 10 Rank 1) | 2 (10 < X < 20 Rank 2) | 0 (X < 0 Rank 0) |  |
| CCOC(=O)c1cnc(SCc2cccc(CC(N)C(=O)O)c2)[nH]c1=O (stereo not drawn) [Compound 131] | 2 (10 < X < 20 Rank 2) | 3 (X > 20 Rank 3) | 3 (X > 20 Rank 3) |  |
| NC(Cc1cccc(-c2cccc(Sc3nc(-c4ccccc4)c(-c4ccccc4)o3)c2)c1)C(=O)O (stereo not drawn) [Compound 134] | 0 (X < 0 Rank 0) | 0 (X < 0 Rank 0) | 1 (0 < X < 10 Rank 1) |  |
| COc1ccc2[nH]c(SCc3cccc(CC(N)C(=O)O)c3)nc2c1 (stereo not drawn) [Compound 135] | 2 (10 < X < 20 Rank 2) | 3 (X > 20 Rank 3) | 2 (10 < X < 20 Rank 2) |  |
| Cc1ccnc(Sc2cccc(-c3cccc(CC(N)C(=O)O)c3)c2)n1 (stereo not drawn) [Compound 136] | 0 (X < 0 Rank 0) | 0 (X < 0 Rank 0) | 3 (X > 20 Rank 3) |  |
| NC(Cc1cccc(CSc2ncccc2C(=O)O)c1)C(=O)O (stereo not drawn) [Compound 137] | 0 (X < 0 Rank 0) | 0 (X < 0 Rank 0) | 2 (10 < X < 20 Rank 2) |  |
| NC(Cc1cccc(-c2cccc(Sc3nnnn3CC(=O)O)c2)c1)C(=O)O (stereo not drawn) [Compound 138] | 0 (X < 0 Rank 0) | 0 (X < 0 Rank 0) | 1 (0 < X < 10 Rank 1) |  |
| Cn1cnnc1SCc1cccc(CC(N)C(=O)O)c1 (stereo not drawn) [Compound 141] | 0 (X < 0 Rank 0) | 0 (X < 0 Rank 0) | 1 (0 < X < 10 Rank 1) |  |
| NC(Cc1cccc(-c2cccc(Sc3ccc4ccccc4n3)c2)c1)C(=O)O (stereo not drawn) [Compound 144] | 0 (X < 0 Rank 0) | 0 (X < 0 Rank 0) | 1 (0 < X < 10 Rank 1) |  |
| CCOC(=O)c1cnc(SCc2cccc(CC(N)C(=O)O)n2)[nH]c1=O (stereo not drawn) [Compound 146] | 2 (10 < X < 20 Rank 2) | 3 (X > 20 Rank 3) | 3 (X > 20 Rank 3) |  |

| SMILES | Comparison with the Binding of Phenylalanine (10^−4 M) | Comparison with the Binding of Phenylalanine (10^−5 M) | Comparison with the Binding of Phenylalanine (10^−6 M) | Status of Binding |
| --- | --- | --- | --- | --- |
| N#CC1(c2ccccc2)CCN(Cc2ccc(-c3ccc(CC(N)C(=O)O)cc3)cc2)CC1 (stereo not drawn) [Compound 147] | 0 (X < 0 Rank 0) | 0 (X < 0 Rank 0) | 1 (0 < X < 10 Rank 1) |  |
| NC(Cc1cccc(CSc2nc(-c3ccccc3)c(-c3ccccc3)[nH]2)n1)C(=O)O (stereo not drawn) [Compound 148] | 0 (X < 0 Rank 0) | 0 (X < 0 Rank 0) | 2 (10 < X < 20 Rank 2) |  |
| NC(Cc1ccc(-c2ccc(CSc3nc(-c4ccccc4)c(-c4ccccc4)[nH]3)cc2)cc1)C(=O)O (stereo not drawn) [Compound 149] | 3 (X > 20 Rank 3) | 3 (X > 20 Rank 3) | 2 (10 < X < 20 Rank 2) |  |
| Cc1ccnc(SCc2ccc(-c3ccc(CC(N)C(=O)O)cc3)cc2)n1 (stereo not drawn) [Compound 151] | 0 (X < 0 Rank 0) | 0 (X < 0 Rank 0) | 2 (10 < X < 20 Rank 2) |  |
| NC(Cc1ccc(-c2ccc(CSc3nnnn3CC(=O)O)cc2)cc1)C(=O)O (stereo not drawn) [Compound 153] | 0 (X < 0 Rank 0) | 0 (X < 0 Rank 0) | 2 (10 < X < 20 Rank 2) |  |
| NC(Cc1cccc(CSc2ncccn2)n1)C(=O)O (stereo not drawn) [Compound 154] | 1 (0 < X < 10 Rank 1) | 0 (X < 0 Rank 0) | 0 (X < 0 Rank 0) |  |
| NC(Cc1ccc(-c2ccc(CSc3nc4ccccc4c(=O)[nH]3)cc2)cc1)C(=O)O (stereo not drawn) [Compound 155] | 0 (X < 0 Rank 0) | 0 (X < 0 Rank 0) | 2 (10 < X < 20 Rank 2) |  |
| Cn1cnnc1SCc1cccc(CC(N)C(=O)O)n1 (stereo not drawn) [Compound 156] | 1 (0 < X < 10 Rank 1) | 1 (0 < X < 10 Rank 1) | 2 (10 < X < 20 Rank 2) |  |
| NC(Cc1cccc(CN2CCN(c3ncccn3)CC2)n1)C(=O)O (stereo not drawn) [Compound 158] | 0 (X < 0 Rank 0) | 0 (X < 0 Rank 0) | 1 (0 < X < 10 Rank 1) |  |
| NC(Cc1ccc(-c2ccc(CSc3ccc4ccccc4n3)cc2)cc1)C(=O)O (stereo not drawn) [Compound 159] | 0 (X < 0 Rank 0) | 0 (X < 0 Rank 0) | 1 (0 < X < 10 Rank 1) |  |
| NC(Cc1cccc(CN2CC=CCC2)n1)C(=O)O (stereo not drawn) [Compound 160] | 0 (X < 0 Rank 0) | 0 (X < 0 Rank 0) | 1 (0 < X < 10 Rank 1) |  |
| COc1ccc(-n2nnnc2SCc2cccc(C[C@H](N)C(=O)O)c2)cc1 [drawing 467] |  |  |  | 3 (3: Δ > 10%, significantly higher binding affinity than phenylalanine) |
| N[C@@H](Cc1cccc(CSc2nnnn2-c2ccccc2)c1)C(=O)O [drawing 468] |  |  |  | 3 (3: Δ > 10%, significantly higher binding affinity than phenylalanine) |
| N[C@@H](Cc1cccc(CSc2nc3ccccc3[nH]2)c1)C(=O)O [drawing 469] |  |  |  | 1 (1: −10 > Δ > −50%, lower binding affinity than phenylalanine) |
| N[C@@H](Cc1cccc(CSc2nnc(-c3ccccc3)[nH]2)c1)C(=O)O [drawing 470] |  |  |  | 2 (2: 10% ≧ Δ ≧ −10% similar binding affinity to phenylalanine) |
| N[C@@H](Cc1cccc(CSc2nc3ccccc3[nH]2)n1)C(=O)O [drawing 471] |  |  |  | 1 (1: −10 > Δ > −50%, lower binding affinity than phenylalanine) |
| N[C@@H](Cc1cccc(CSc2ncnc3[nH]ncc23)n1)C(=O)O [drawing 472] |  |  |  | 0 (0: Δ ≦ −50%, no binding or very low binding affinity) |
| N[C@@H](Cc1cccc(CS(=O)(=O)c2nc3ccccc3[nH]2)n1)C(=O)O [drawing 473] |  |  |  | 0 (0: Δ ≦ −50%, no binding or very low binding affinity) |
| N[C@@H](Cc1cccc(CSc2nccc(O)n2)c1)C(=O)O [drawing 474] |  |  |  | 1 (1: −10 > Δ > −50%, lower binding affinity than phenylalanine) |
| N[C@@H](Cc1cccc(C[S+]([O-])c2nnnn2-c2ccccc2)c1)C(=O)O (stereo partly drawn) [drawing 475] |  |  |  | 3 (3: Δ > 10%, significantly higher binding affinity than phenylalanine) |
